These results are taken from patent US20190071416A1, “COMPOUNDS FOR TREATMENT OF CANCER AND EPIGENETICS” (Agency For Science, Technology and Research, priority 2015, published 2019).

In experiment [1] the test system is MAP3K2 methylation (me2/me3-Lys 260). Briefly: SMYD3 mediated methylation of MAP3K2 in HEK293 cells (Western blot). The experiment is classed as cell-based, Human. To be noted: 25 μM. Here is the method: (§1) The cells were seeded in 6 well plates. After seeding for 24 h, the cells were treated with either DMSO or 25 μM compound and incubated for 24 hr. The cells were trypsinized and the lysate was extracted with RIPA buffer (Santa Cruz). The total protein concentration of lysate is quantified using the standard Bradford assay (Biorad protein assay, microplate standard assay).
Western blot analysis for detecting methylated MAP3K2 was carried out using a customized Anti-me2/me3-Lys 260 MAP3K2 at 1:500 and the total MAP3K2 was detected using Anti-MEKK2 (AB33918) using a 1:10,000 dilution.
B019 was further tested for its ability to inhibit SMYD3 in cells through its effects on cellular MAP3K2 methylation. This was performed using an antibody against the MAP3K2 (me2/me3), Anti-ME2/ME3-K260-MAP3K2 (1:500) and total MAP3K2, Anti-MEKK2 #ab33918 (1:10,000).
In general terms: A western blot detects proteins with antibodies after separation by electrophoresis.

The next experiment deals with HepG2. Briefly: Cell proliferation assay (CellTiter-Glo), HepG2. The experiment is classed as cell-based. The conditions noted are these: Homo sapiens, HepG2, 72 h; 3 days. How it is done:
(§2) The cell proliferation assays were tested in several cell lines, including HepG2,HCT116, A549, HPAF-II, CFPAC-1,HuH7, SNU398,Hep3B, and HEK293. All cell lines are from ATCC. HepG2, HPAF-II and HEK293 are cultured in Eagle's MEM media supplemented with fetal bovine serum. HCT116 is cultured in McCoy media supplemented with fetal bovine serum. Huh-7 is cultured in DMEM low glucose (1000 mg/L glucose) with 10% FBS, 1% L-Glutamate and 1% Penicillin/Streptomycin. SNU398 is cultured in RPMI with 10% FBS with 1% L-Glutamate and 1% Penicillin/Streptomycin. Hep3B is cultured in Eagle's MEM with 10% FBS, 1% L-Glutamate and 1% Penicillin/Streptomycin. A549 is cultured in RPMI media supplemented with fetal bovine serum while CFPAC-1 is cultured in IMDM media supplemented with fetal bovine serum. All media and serum are purchased from Gibco (Lifetech). All cells were grown in a temperature controlled incubator at 37° C. and 5% CO2.
(§3) Cell proliferation assay was performed using CellTiter-Glo Luminescent Cell Viability Assay (Promega) following manufacturer's instructions. The cell-line of interest was treated with compounds that were serial diluted in its respective media. Plates were incubated for 3 days at 37° C. in 5% CO2. After 3 days, an equal volume of Cell Titer Glo reagent was added. Plates were rocked on a rotator for 2 h. 100 μL of each well were transferred to a 96-well opaque plate, and luminescence emitted was measured with the Tecan Safire II.
On the technique in general: In ATP-based viability assays light output follows the ATP content of the culture.

For the next experiment, the system named is HCT-116. Briefly: Cell proliferation assay (CellTiter-Glo), HCT-116. The format is cell-based. To be noted: Homo sapiens, HCT-116, 72 h; 3 days. Here is the method:
as §2, §3

For a further experiment, the system named is A549. Briefly: Cell proliferation assay (CellTiter-Glo), A549. The experiment is classed as cell-based. To be noted: Homo sapiens, A549, 72 h; 3 days. Here is the method: as §2, §3
For the next experiment, the target named is T1, SMYD3 (Homo sapiens, UniProt Q9H7B4).
T1 sequence (Q9H7B4 1-428): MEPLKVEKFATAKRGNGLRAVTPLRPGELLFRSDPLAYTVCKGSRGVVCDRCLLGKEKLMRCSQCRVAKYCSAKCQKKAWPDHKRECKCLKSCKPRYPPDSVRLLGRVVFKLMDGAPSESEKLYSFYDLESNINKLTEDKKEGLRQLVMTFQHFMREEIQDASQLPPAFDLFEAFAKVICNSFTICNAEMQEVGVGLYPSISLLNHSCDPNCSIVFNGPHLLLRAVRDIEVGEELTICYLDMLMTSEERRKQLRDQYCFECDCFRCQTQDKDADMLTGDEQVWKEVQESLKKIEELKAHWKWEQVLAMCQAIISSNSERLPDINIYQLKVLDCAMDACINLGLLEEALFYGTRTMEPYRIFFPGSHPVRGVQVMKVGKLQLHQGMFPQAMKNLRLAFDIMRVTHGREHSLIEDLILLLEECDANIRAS
The experiment in a line: Target engagement assay, SMYD3 levels by Western blot in HEK293 cells transfected with Myc-SMYD3. The experiment is classed as cell-based. Set-up: host or cells: HEK293 (ATCC). The conditions noted are these: 25 μM, overnight, HEK293 transiently transfected with Myc-tagged SMYD3. Here is the method: The target engagement assay was performed with HEK293 that is engineered to overexpress SMYD3 (HEK293-SMYD3). The plasmid SMYD3 (Myc-DDK-tagged-Human SET and MYND domain containing 3) was purchased from Origene (RC230064) and transfected with lipofectamine 2000 (Invitrogen) into HEK293 (ATCC). The cell line is cultured in Eagle's MEM media supplemented with fetal bovine serum and geneticin (Invitrogen). Presence of over-expressed SMYD3 is confirmed with western blot with antibody against SMYD3 and the MYC tag as well as with RT-PCR with SMYD3 primers.
as §1
Western blot analysis was performed using antibody against SMYD3 in HEK293 cells over-expressing SMYD3 (HEK293-SMYD3) treated with compound at different time points. 15.0 μg of cell lysate was diluted in 2× Laemmli sample buffer (Bio-Rad) and boiled at 100° C. on heat block for 5 min. Lysates were separated using NuPAGE® 4-12% Bis-Tris precast polyacrylamide gels (Lifetech) at 200 V, […] for 40 min. […]

Structures are written as SMILES.

For orientation: GI50 means the concentration at which growth is held to half of that of the control. The low end stands for greater sensitivity of the cells, the high end for lower sensitivity of the cells.

For `CCCOC(=O)N1CCN(C(=O)c2ccc3c(Cl)cc(-c4ccccc4)nc3c2)C[C@H]1C` [B019, Propyl (R)-4-(4-chloro-2-phenylquinoline-7-carbonyl)-2-methylpiperazine-1-carboxylate], the “inhibition of methylation of MAP3K2 in cells” value in experiment [1] was “inhibited”. Further, the “total MAP3K2 levels” value in experiment [1] is “without changing”. For the same molecule, the GI50 in the experiment on HepG2 came to 18.9 µM; with HCT-116, 17.9 µM; with A549, 28.8 µM. Moreover, at SMYD3, the “reduction in SMYD3 levels” value was 35-37%.
